Assay results as given in ChEMBL document CHEMBL3751806, “Synthesis, experimental evaluation and molecular modelling of hydroxamate derivatives as zinc metalloproteinase inhibitors” (Eur J Med Chem, 2016).
pIC50: −log10 of the molar value.

Legend:
[1] = target: Thermolysin (Bacillus thermoproteolyticus) (UniProt P00800); experiment: Inhibition of Bacillus thermoproteolyticus thermolysin pretreated with compound for 15 mins followed by the addition of Abz-Ala-Gly-leu-Ala-p-nitrobenzalamide as substrate by spectrofluorometry
[2] = target: Disintegrin and metalloproteinase domain-containing protein 17 (Homo sapiens, UniProt P78536); experiment: Inhibition of recombinant human ADAM17 after 30 mins using FS-6 as substrate by fluorometry
Chain of Disintegrin and metalloproteinase domain-containing protein 17 (P78536 whole entry, the tested form may be a part): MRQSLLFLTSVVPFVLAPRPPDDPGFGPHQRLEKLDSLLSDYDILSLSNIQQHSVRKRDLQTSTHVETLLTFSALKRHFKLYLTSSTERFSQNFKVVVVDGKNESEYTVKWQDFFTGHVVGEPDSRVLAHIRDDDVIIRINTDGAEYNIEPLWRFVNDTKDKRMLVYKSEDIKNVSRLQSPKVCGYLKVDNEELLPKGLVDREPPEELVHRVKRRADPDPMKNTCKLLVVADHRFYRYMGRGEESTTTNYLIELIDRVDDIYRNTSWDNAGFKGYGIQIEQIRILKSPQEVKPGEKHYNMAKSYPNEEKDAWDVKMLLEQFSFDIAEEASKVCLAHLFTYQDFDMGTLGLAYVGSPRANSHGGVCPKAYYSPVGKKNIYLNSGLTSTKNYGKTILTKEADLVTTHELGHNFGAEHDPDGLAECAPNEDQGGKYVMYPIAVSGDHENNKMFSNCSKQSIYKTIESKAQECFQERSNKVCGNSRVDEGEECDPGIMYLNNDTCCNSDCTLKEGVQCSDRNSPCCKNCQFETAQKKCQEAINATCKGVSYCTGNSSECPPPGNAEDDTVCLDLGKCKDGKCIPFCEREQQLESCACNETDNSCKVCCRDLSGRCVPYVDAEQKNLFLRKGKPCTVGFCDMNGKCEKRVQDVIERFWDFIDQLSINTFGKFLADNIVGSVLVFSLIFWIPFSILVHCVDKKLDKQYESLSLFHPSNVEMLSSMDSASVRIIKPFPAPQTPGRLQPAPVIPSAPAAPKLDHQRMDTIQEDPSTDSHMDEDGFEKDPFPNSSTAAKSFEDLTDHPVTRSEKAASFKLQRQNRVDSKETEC

Elastase = Elastase (Pseudomonas aeruginosa (strain ATCC 15692 / PAO1 / 1C / PRS 101 / LMG12228), UniProt P14756); experiment: Inhibition of Pseudomonas aeruginosa pseudolysin pretreated with compound for 1 hr followed by the addition of 1.73 uM bradykinin like substrate by spectrofluorometry
Chain of Elastase (P14756 whole entry): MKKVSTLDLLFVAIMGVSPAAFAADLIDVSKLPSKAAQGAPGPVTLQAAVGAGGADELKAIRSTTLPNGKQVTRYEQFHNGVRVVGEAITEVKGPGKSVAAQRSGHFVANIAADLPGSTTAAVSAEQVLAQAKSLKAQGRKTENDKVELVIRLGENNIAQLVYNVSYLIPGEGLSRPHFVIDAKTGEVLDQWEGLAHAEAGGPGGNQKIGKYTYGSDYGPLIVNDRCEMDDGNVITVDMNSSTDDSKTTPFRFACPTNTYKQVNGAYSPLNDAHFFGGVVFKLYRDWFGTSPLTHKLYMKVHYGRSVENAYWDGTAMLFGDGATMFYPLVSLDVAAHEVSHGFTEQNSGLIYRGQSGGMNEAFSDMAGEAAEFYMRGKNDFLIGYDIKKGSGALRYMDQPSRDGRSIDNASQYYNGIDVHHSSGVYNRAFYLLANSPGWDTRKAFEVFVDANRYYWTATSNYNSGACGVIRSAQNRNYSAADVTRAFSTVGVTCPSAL

Thermolysin [3] = target: T1, Thermolysin (Bacillus thermoproteolyticus, UniProt P00800); experiment: Inhibition of Bacillus thermoproteolyticus thermolysin pretreated with compound for 1 hr followed by the addition of 3.33 uM bradykinin like substrate by spectrofluorometry assay
T1 sequence (P00800 whole entry): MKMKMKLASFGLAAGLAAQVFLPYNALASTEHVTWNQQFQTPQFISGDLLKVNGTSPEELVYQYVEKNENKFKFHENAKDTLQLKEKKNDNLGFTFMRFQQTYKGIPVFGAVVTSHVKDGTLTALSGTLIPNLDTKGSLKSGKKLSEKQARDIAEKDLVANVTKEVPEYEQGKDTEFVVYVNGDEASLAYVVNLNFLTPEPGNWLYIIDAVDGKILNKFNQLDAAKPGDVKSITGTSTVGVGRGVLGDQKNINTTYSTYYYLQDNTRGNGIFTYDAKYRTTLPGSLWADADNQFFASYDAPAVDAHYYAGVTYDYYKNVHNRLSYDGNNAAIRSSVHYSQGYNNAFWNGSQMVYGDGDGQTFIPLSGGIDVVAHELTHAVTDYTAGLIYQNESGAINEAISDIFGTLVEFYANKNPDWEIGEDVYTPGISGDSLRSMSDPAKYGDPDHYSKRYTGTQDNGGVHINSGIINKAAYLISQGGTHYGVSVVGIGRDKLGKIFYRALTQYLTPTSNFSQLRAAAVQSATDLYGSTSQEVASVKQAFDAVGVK

[4] = target: 72 kDa type IV collagenase (Homo sapiens, UniProt P08253); experiment: Inhibition of recombinant human MMP2 after 2 hrs using FS-6 as substrate by fluorometry
Chain of 72 kDa type IV collagenase (P08253 whole entry): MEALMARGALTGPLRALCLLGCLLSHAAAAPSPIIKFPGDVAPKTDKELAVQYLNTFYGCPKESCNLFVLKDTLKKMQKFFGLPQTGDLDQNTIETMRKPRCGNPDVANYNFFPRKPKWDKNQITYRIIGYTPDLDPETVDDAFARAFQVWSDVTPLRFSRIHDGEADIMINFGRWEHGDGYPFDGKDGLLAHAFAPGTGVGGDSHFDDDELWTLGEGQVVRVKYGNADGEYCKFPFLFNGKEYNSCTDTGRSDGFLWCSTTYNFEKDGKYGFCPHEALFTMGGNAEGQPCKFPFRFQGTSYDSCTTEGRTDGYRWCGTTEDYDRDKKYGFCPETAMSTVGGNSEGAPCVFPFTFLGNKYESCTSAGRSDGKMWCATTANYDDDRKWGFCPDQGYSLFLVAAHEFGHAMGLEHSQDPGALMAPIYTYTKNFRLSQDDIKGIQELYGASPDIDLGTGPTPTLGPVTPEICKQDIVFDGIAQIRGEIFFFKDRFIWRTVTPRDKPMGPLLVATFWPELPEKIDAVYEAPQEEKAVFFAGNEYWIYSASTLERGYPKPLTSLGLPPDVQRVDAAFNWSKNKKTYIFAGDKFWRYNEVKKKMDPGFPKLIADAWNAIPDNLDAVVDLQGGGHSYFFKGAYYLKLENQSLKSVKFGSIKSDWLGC

[5] = target: Matrix metalloproteinase-9 (Homo sapiens, UniProt P14780); experiment: Inhibition of recombinant human MMP9 after 2 hrs using FS-6 as substrate by fluorometry
Chain of Matrix metalloproteinase-9 (P14780 whole entry): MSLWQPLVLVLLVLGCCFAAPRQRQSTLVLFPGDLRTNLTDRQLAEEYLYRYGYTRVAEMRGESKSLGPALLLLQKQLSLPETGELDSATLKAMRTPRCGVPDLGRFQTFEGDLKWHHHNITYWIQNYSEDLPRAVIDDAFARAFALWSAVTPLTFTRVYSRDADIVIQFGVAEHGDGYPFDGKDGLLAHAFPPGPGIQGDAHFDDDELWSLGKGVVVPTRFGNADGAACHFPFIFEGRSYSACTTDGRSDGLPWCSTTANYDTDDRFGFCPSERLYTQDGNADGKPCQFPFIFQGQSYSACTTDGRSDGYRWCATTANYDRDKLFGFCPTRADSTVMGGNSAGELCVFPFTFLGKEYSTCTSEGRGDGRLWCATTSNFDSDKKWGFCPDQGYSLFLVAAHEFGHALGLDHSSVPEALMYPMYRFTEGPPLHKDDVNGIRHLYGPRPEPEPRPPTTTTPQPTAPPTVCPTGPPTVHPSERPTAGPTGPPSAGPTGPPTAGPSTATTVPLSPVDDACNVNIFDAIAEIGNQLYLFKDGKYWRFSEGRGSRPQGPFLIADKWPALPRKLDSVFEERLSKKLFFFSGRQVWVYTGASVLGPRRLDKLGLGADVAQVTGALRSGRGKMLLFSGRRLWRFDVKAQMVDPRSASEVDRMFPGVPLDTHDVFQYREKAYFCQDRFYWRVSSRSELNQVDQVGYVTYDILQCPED

Thermolysin [6] = target: T1, Thermolysin; experiment: Inhibition of Bacillus thermoproteolyticus thermolysin pretreated with compound for 15 mins followed by the addition of 75 uM Abz-Ala-Gly-leu-Ala-p-nitrobenzalamide as substrate by spectrofluorometry

| SMILES | pIC50 [1] | pIC50 [2] | pIC50 (Elastase) | pIC50 (Thermolysin [3]) | pIC50 [4] | pIC50 [5] | pIC50 (Thermolysin [6]) |
| --- | --- | --- | --- | --- | --- | --- | --- |
| COc1ccc(S(=O)(=O)N(CC(C)C)[C@@H](C(=O)NO)C(C)C)cc1 | 3.99 |  |  |  |  |  |  |
| CC(C)ON([C@@H](C(=O)NO)C(C)C)S(=O)(=O)c1ccc(-c2ccccc2)cc1 |  | 4.85 |  |  |  |  |  |
| CCCCC(NOCc1ccccc1)C(=O)NO (configuration not stated) | 5.96 | 4.00 | 5.72 | 5.02 |  |  |  |
| O=C(Cc1ccccc1S(=O)(=O)c1ccc(OCCCN2C(=O)c3ccccc3C2=O)cc1)NO | 5.15 | 3.82 | 4.42 | 3.88 | < 5.00 | < 5.00 |  |
| O=C(N[C@H](CCN1C(=O)c2ccccc2C1=O)C(=O)NO)c1ccc(Oc2ccccc2)cc1 | 4.80 | 5.02 |  |  | 5.05 | 5.09 |  |
| COc1ccc(S(=O)(=O)N(CC(=O)NO)OC23CC4CC(CC(C4)C2)C3)cc1 |  |  |  |  | 5.70 | 5.70 |  |
| O=C(CCNS(=O)(=O)c1ccc(-c2ccccc2)cc1)NO | 4.52 |  | 4.10 | 4.52 | 5.62 | 4.59 | 4.52 |
| CC(C)CN([C@@H](C(=O)NO)C(C)C)S(=O)(=O)c1ccc(-c2ccccc2)cc1 |  |  |  |  | 8.52 | 8.28 |  |
| CC(C)ON(CC(=O)NO)S(=O)(=O)c1ccc(Br)s1 | 5.48 | 3.94 | 4.51 | 4.54 | 5.96 | 5.21 | 4.54 |
| COc1ccc(S(=O)(=O)c2ccccc2CC(=O)NO)cc1 | 4.77 | 4.17 | 4.54 | 3.84 |  |  |  |
